Ends that are not written are not given here.
What was measured:
TGF-β1 [1] = biological target: T1, TGF-β1 (Mus musculus, UniProt P04202); test: Model of acute liver damage induced by CCl4, type I collagen mRNA by real time PCR; type: in vivo, mice; design: key to % Inhibition of type I collagen mRNA induction (in vivo TGF-β1 biological activity): Neg: negative; settings: for % Inhibition of type I collagen mRNA induction (in vivo TGF-β1 biological activity): Balb/C mice, oral CCl4, 50 μg of peptide every 24 h, sacrifice after 72 hours; for inhibition of the biological activity of TGF-β1 in vivo (in words): acute liver damage, type I collagen mRNA
T1 construct: from tissue; host or cells: liver of Balb/C mice (CCl4 model); lung of C57BL/6 mice (bleomycin model)
T1 sequence (P04202 279-390 limits assumed): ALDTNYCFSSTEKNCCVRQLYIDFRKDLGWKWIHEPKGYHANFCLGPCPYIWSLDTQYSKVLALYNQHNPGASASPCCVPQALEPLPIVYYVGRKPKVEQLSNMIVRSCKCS
Experimental: Acute liver damage generates a cascade of effects and physiological responses, including elevations in the concentrations of TGF-β1. This elevation is responsible for the expression of the type I collagen gene, among others. In this model of acute liver damage, female Balb/C mice weighing 25 to 30 g, were orally administered a dose of 2 μl of CCl4 (per gram of body weight) dissolved in an equivalent volume of corn oil (volumetric ratio of 1:1). The control group received an equivalent volume of corn oil only, and the treated groups received (following the single oral administration of CCl4 in corn oil) 50 μg of peptide in 500 μl of 1% physiological saline solution in DMSO (dimethyl sulfoxide) every 24 h. After 72 hours all animals were sacrificed, and the liver samples were processed. To evaluate mRNA expression, liver tissue was frozen in liquid nitrogen and stored at −80° C. until further use. Other liver tissue samples were stored in OCT® or Tissue-Tek® (Sakura Finetek B.V.) and processed in the same way as the samples used for mRNA studies. Other liver samples were fixed in 10% buffered formalin solution, embedded in paraffin and processed for their histological evaluation. The amount of mRNA encoding type I collagen was quantified in all groups using a quantitative polymerase chain reaction (PCR) technique. […] The capacity of the testing peptides to block the acute damage, as assessed by measuring the levels of induced type I collagen mRNA was quantified by real time PCR. […] The peptides tested were obtained by conventional solid peptide synthesis procedures (Merrifield R B. J Am Chem Soc 1963; 85:2149-2154; Atherton E et al. J Chem Soc Perkin Trans 1981; 1:538-546).

TGF-β1 [2] = biological target: T2, TGF-β1 (Homo sapiens, UniProt P01137); test: Biopanning of phage-displayed 15-aa peptide library on biotinylated TGF-β1, number of colonies per sequence; type: binding; design: purchased Roche; host or cells: added to Mv-1-Lu (CCL-64) mink lung epithelial cells; settings: clones carrying the sequence among 108 colonies after the last biopanning cycle; approximate indication of affinity for TGF-β1
T2 sequence (P01137 279-390 limits assumed, species assumed): as the sequence (P04202 279-390 limits assumed) above, with S75A counted along it
From the text: These libraries comprise a plurality of filamentous bacteriophages (M13), each one containing a peptide genetically fused to a protein of the virus envelope—in this case bound to the N-terminal end of envelope protein pIII (FIG. 1). […] In the phage libraries, the sequence encoding the peptide originates from a sequence degenerated in each one of the 15 positions with the 20 natural amino acids, thus allowing the presentation of 1.1×10^12 possible sequences of 15 amino acids in different phages. The physical ratio, 1:1, between the peptide sequence and the DNA encoding it within the bacteriophage allows the selection (from a broad range of variants) of those sequences that specifically bind to TGF-β1. This process is carried out via an in vitro selection protocol known as “biopanning”.
This technique involves incubating a set of phages representative (to practical effects) of all the 15-aa variants, in a plate blocked with streptavidin (10 μg/ml in 0.1 M NaHCO3, during 2 h at room temperature) to which biotinylated TGF-β1 is added. […] TGF-β1 contacts the peptides carried by the phages at a concentration of […]. After about 12 hours incubation, unbound phages are eliminated by 5 washings with PBS/Tween (phosphate buffered saline/polyoxyalkylene derivatives of sorbitan fatty acid esters). […] The eluted phages are then amplified by infection in a bacterial strain (E. coli). The process is repeated three cycles so that an enrichment in the content of phages which specifically bind, and with high affinity, to TGF-β1 is achieved (FIG. 3). […] Thus, the phages selected in each cycle show more and more affinity for TGF-β1. At the end of the process, phages which have been selected for their affinity for TGF-β1, are sequenced by using primers, after isolation by tetracycline resistance of the genetically modified phages after infecting E. coli cells. […] The number of times which a sequence is repeated, corresponding to a 15 amino acids peptide carried by each clone, from the total of sequenced colonies is an indication of the degree of relative affinity of said 15 amino acids sequence for TGF-β1.
The selection of clones, obtained from the “biopanning”, was carried out by selection of the bacterial colonies infected with the phages in the presence of a bacterial antibiotic; the bacteria resistance is acquired by a tetracycline resistance gene encoded by the phage genome. Thus, only those colonies infected with bacteriophages are able to grow. This means that each colony contains the genome of only one phage coding for only one peptide presented in its surface.
A total number of 108 colonies of phage-infected bacteria were obtained from the last selection cycle of “biopanning”. The sequence of the regions coding for the peptides present in the pIII protein was carried out using primers identified with SEQ ID NO: 23. This table also reflects the number of colonies (clones) carrying said sequences.
The number of clones (colonies) of each sequence gives an approximate indication of the degree of affinity of the peptide for TGF-β1, that is, the more colonies the more binding affinity.

TGF-β1 [3] = biological target: T2, TGF-β1; type: cell-based; design: purchased Roche; host or cells: added to Mv-1-Lu (CCL-64) mink lung epithelial cells; settings: for inhibition of the biological activity of TGF-β1 in vitro (in words): Mv-1-Lu proliferation
From the text: The cell line Mv-1-Lu (CCL-64, […], Virginia, USA) derives from mink pulmonary epithelium, grows as a monolayer, and responds to the presence of TGF-β1 by decreasing its proliferation (FIG. 5). Thus, the peptide-mediated inhibition of this cytokine is able to restore cell growth and reflects the capacity of the different peptides to inhibit the biological activity of TGF-β1 in vitro. The peptides tested were obtained by peptide synthesis, in accordance to conventional procedures (Merrifield R B. J Am Chem Soc 1963; 85:2149-2154; Atherton E et al. J Chem Soc Perkin Trans 1981; 1:538-546).
The Mv-1-Lu cells are cultured to confluence in complete medium [RPMI-1640 supplemented with L-glutamine, sodium pyruvate, antibiotics and 10% fetal bovine serum (FBS)] at 37° C. and in 5% CO2 in 162 cm^2 bottles (Costar Corporation, CA, USA). Following trypsinization, the cells are cultured in 200 μl of complete medium in 96-well plates at an initial density of 5,000 cells/well at 37° C. and in 5% CO2 during 6 hours to ensure adhesion. Then, different concentrations of the peptides to be tested are added, starting from 200 μg/ml, and following 200 pg/ml of TGF-β1 (Roche) are added. After 12 hours of incubation 1 μCi of methyl-3H-thymidine (Amersham Life Science, Buckinghamshire, United Kingdom) is added per well in 25 μl of clean medium (RPMI-1640). The plate is incubated for 12 more hours under the same conditions. Finally, the cells are harvested (Filtermate 196 Harvester, Packard), transferring the tritiated thymidine, incorporated in the course of DNA synthesis, to plates (UniFilter-96 GF/C®, Perkin Elmer). Following the addition of scintillation fluid, the radioactivity was quantified using a scintillation counter (Top Count, Microplate Scintillation Counter, Packard). As positive and negative control, use was made of the incorporation of tritiated thymidine in the absence and presence of TGF-β1, respectively. The inhibition of TGF-β1 activity in this test was calculated based on the following formula: […]
The negative control represents the incorporation of tritiated thymidine in the presence of TGF-β1 but in the absence of peptide, whereas the positive control refers to the incorporation of tritiated thymidine in the absence of TGF-β1 and peptide. Thus, according to the capacity of the peptides to revert the cytokine repressor effect on Mv-1-Lu cell line proliferation, percentage of TGF-β1 biological activity inhibition by the peptides can be measured (Table 2).
Comparisons have been made of the activity of truncated peptides (derived from peptide sequence SEQ ID NO: 17) versus the complete sequence, in terms of the capacity to revert the suppressor effect of TGF-β1 upon proliferation of the Mv-1-Lu cell line. To this effect, and to determine the minimum sequence of peptide SEQ ID NO: 17 capable of inhibiting the biological activity of TGF-β1 in vitro, truncated versions of this peptide were synthesized, with truncation at the N-terminal end, C-terminal end or in both ends of the molecule. The peptides tested were obtained by peptide synthesis following conventional procedures (Merrifield R B. J Am Chem Soc 1963; 85:2149-2154; Atherton E et al. J Chem Soc Perkin Trans 1981; 1:538-546). Following the same methodology described in Example 2, the activity of truncated peptides versus the complete sequence of the peptide SEQ ID NO: 17 was quantified, in terms of a proliferation assay of the Mv-1-Lu cell line.

| Sequence | % Inhibition of type I collagen mRNA induction (in vivo TGF-β1 biological activity) (TGF-β1 [1]) | inhibition of the biological activity of TGF-β1 in vivo (in words) (TGF-β1 [1]) | No. colonies (TGF-β1 [2]) | inhibition of the biological activity of TGF-β1 in vitro (in words) (TGF-β1 [3]) | % Inhibition of in vitro TGF-β1 biological activity (TGF-β1 [3]) [%] |
| --- | --- | --- | --- | --- | --- |
| RKWFLQHRRMPVSVL [SEQ ID NO: 13] | 32.70% | inhibitory capacity | 6 | inhibitory capacity |  |
| IWFIPRSSWYE [SEQ ID NO: 27, IWFIPRSSWYE] |  |  |  |  | 1.4 ± 2.5 |
| DRRIFWWSLRSAPGA [SEQ ID NO: 1] | 0.69% |  | 6 |  |  |
| KRIWFIPRS [SEQ ID NO: 36, KRIWFIPRS] |  |  |  |  | 6.2 ± 2.5 |
| IPRSSWYERA [SEQ ID NO: 31, IPRSSWYERA] |  |  |  |  | 3.4 ± 1.4 |
| WHKYFLRRPLSVRTR [SEQ ID NO: 11] | 39.34 ± 21.9% | inhibitory capacity | 4 | inhibitory capacity |  |
| HVRLHHYLRHRSLPN [SEQ ID NO: 21] | Neg |  | 1 |  |  |
| GWHSLLHSRYHRLAA [SEQ ID NO: 9] | 26.59% |  | 1 |  |  |
| DRRIFWWSNRSAPGA [SEQ ID NO: 2] | 36.6 ± 30.7% | only inhibitory activity | 1 |  |  |
| IWFIPRSSWYERA [SEQ ID NO: 26, IWFIPRSSWYERA] |  |  |  |  | 4.5 ± 1.8 |
| HRISHFAHRYLARLH [SEQ ID NO: 7] | Neg |  | 2 |  |  |
| FIPRSSWYERA [SEQ ID NO: 30, FIPRSSWYERA] |  |  |  |  | −0.3 ± 3.0 |
| RHLSHFKWLRSHGLD [SEQ ID NO: 19] | 12.12% |  | 1 |  |  |
| PRSSWYERA [SEQ ID NO: 32, PRSSWYERA] |  |  |  |  | 3.8 ± 1.6 |
| KRIWFIPRSSWY [SEQ ID NO: 34, KRIWFIPRSSWY] |  | capable of inhibiting the expression of collagen type I mRNA |  |  | 34.4 ± 7.9 |
| RRWVRYPVHLHSPIV [SEQ ID NO: 5] | Neg |  | 1 |  |  |
| KRIWFIPRSSWYER [SEQ ID NO: 33, KRIWFIPRSSWYER] |  |  |  | inhibitory activity | 31.4 ± 7.0 |
| WFIPRSSWY [SEQ ID NO: 28, WFIPRSSWY] |  |  |  |  | 3.1 ± 0.9 |
| RLHGHRSHRFTHVAQ [SEQ ID NO: 16] | Neg |  | 1 |  |  |
| RIWFIPRSSWYERA [SEQ ID NO: 24, RIWFIPRSSWYERA] |  |  |  |  | 9.4 ± 0.4 |
| WFIPRSSWYERA [SEQ ID NO: 29, WFIPRSSWYERA] |  |  |  |  | 2.7 ± 1.8 |
| RRFHFHSRMVAVDNS [SEQ ID NO: 20] | 1.41% |  | 1 |  |  |
| VPMALNHGVYVMVSS [SEQ ID NO: 22] | Neg |  | 1 |  |  |
| RIWFIPRSSWYER [SEQ ID NO: 25, RIWFIPRSSWYER] |  |  |  |  | 6.2 ± 1.5 |
| FVWVRFHRLPRQIYT [SEQ ID NO: 10] | Neg |  | 1 |  |  |
| WHWRHRIPLQLAAGR [SEQ ID NO: 8] | Neg |  | 2 |  |  |
| WHKYFLRRPLSVGLG [SEQ ID NO: 12] | Neg |  | 1 |  |  |
| GWITFHRRHHDRVLS [SEQ ID NO: 15] | 14.26% |  | 1 |  |  |
| KRIWFIPRSS [SEQ ID NO: 35, KRIWFIPRSS] |  |  |  |  | 6.0 ± 0.4 |

Source: patent publication US8158589B2, “Peptides with the capacity to bind to transforming growth factor β1 (TGF-β1)” (Proyecto Biomedicine Cima, S.L., priority 2003, dated 2012)
